From patent EP2168591A1, “Antimicrobial peptides” (Helmholtz Zentrum München Deutsches Forschungszentrum für …, priority 2008, dated 2010)
Where two headings read alike, the source gives them in different places. Non-standard residues stand in square brackets, D forms with d. Residues, ends and D or L forms follow the SMILES beside them. No end group written: not given here.

Experiments:
Alternaria alternata = format: cell-based; conditions: complete inhibition of spore germination/mycelial growth, OD590nm
Method: (§1) In-vitro inhibition assays were performed in sterile flat-bottom 96-well plates (Greiner bio-one, Frickenhausen). […] Spores of fungi were collected by water washes of sporulating cultures grown on 2% malt extract agar and spore concentration was determined by microscopy. The concentration of the spores was adjusted to 1.5-2 x 10^3 spores/ml in 2% malt extract medium and 80 µl of fungal spores were added per well. […] After overnight incubation at room temperature the plate were put on a rotary shaker (300 rpm) for further two days to ensure consistantly growth. Antifungal effects of the peptides were determined by a microplate reader (Alternaria, Fusarium) at OD590nm or by visual screening of the plates (Botrytis, Cladosporium). The lowest peptide concentration leading to complete inhibition of bacterial growth or spore germination/mycelial growth (minimal inhibition concentration, MIC) was determined for each organism-peptide combination. For each peptide concentration two identical inhibition assays were performed. Table 1: Minimal inhibition concentration (MIC) for complete inhibition of bacterial growth or spore germination/mycelial growth.

Botrytis cinerea = format: cell-based; conditions: complete inhibition of spore germination/mycelial growth, visual screening
Method: as §1

Cladosporium herbarum = format: cell-based; conditions: complete inhibition of spore germination/mycelial growth, visual screening
Method: as §1

[1] = tested on: Clavibacter michiganensis sub. michiganensis; conditions: complete inhibition of bacterial growth, overnight at 25 °C
Method: (§2) In-vitro inhibition assays were performed in sterile flat-bottom 96-well plates (Greiner bio-one, Frickenhausen). Antimicrobial peptides were dissolved in 0.01% acetic acid containing 0.2% BSA (500 µg/ml), filter sterilized and stored at -20°C. For inhibition assays dilutions of peptides ranging from 5 to 200 µg/ml were prepared and 10 µl (antibacterial assay) or 20 µl (antifungal assay) of each concentration was loaded per well.
(§3) Bacteria colonies from overnight agar plate cultures were resuspended into 5ml LB-medium or HPG-medium (OD600nm=0.08-0.1) and diluted into LB-medium/HPG-medium (1:100). 90 µl of this suspension containing about 10^5-10^6 CFU/ml of tested bacteria were added to each well resulting in final peptide concentrations of 0, 0.5, 1, 2, 5, 10, and 20 µg/ml.
(§4) The lowest peptide concentration leading to complete inhibition of bacterial growth or spore germination/mycelial growth (minimal inhibition concentration, MIC) was determined for each organism-peptide combination. For each peptide concentration two identical inhibition assays were performed. […] Table 1: Minimal inhibition concentration (MIC) for complete inhibition of bacterial growth or spore germination/mycelial growth.

[2] = tested on: Pectobacterium carotovorum sub. carotovorum
Method: as §2, §3, §4

Pseudomonas corrugata = tested on: Pseudomonas corrugata
Method: as §2, §3, §4

[3] = tested on: Pseudomonas syringae pv. syringae
Method: as §2, §3, §4

[4] = tested on: Pseudomonas syringae pv. tomato
Method: as §2, §3, §4

Xanthomonas vesicatoria = tested on: Xanthomonas vesicatoria
Method: as §2, §3, §4

[5] = complete inhibition of bacterial growth, Pectobacterium carotovorum sub. carotovorum, overnight at 25 °C
[6] = complete inhibition of bacterial growth, Pseudomonas corrugata, overnight at 25 °C
[7] = complete inhibition of bacterial growth, Pseudomonas syringae pv. syringae, overnight at 25 °C
[8] = complete inhibition of bacterial growth, Pseudomonas syringae pv. tomato, overnight at 25 °C
[9] = complete inhibition of bacterial growth, Xanthomonas vesicatoria, overnight at 25 °C

Row | Molecule | Minimal inhibition concentration (MIC) (Alternaria alternata) [µg/mL] | Minimal inhibition concentration (MIC) (Botrytis cinerea) [µg/mL] | Minimal inhibition concentration (MIC) (Cladosporium herbarum) [µg/mL] | Minimal inhibition concentration (MIC) [1] [µg/mL] | Minimal inhibition concentration (MIC) [2, 5] [µg/mL] | Minimal inhibition concentration (MIC) (Pseudomonas corrugata; [6]) [µg/mL] | Minimal inhibition concentration (MIC) [3, 7] [µg/mL] | Minimal inhibition concentration (MIC) [4, 8] [µg/mL] | Minimal inhibition concentration (MIC) (Xanthomonas vesicatoria; [9]) [µg/mL] | Minimal inhibition concentration (MIC) [2] [µg/mL] | Minimal inhibition concentration (MIC) (Pseudomonas corrugata) [µg/mL] | Minimal inhibition concentration (MIC) [3] | Minimal inhibition concentration (MIC) [4] | Minimal inhibition concentration (MIC) (Xanthomonas vesicatoria) [µg/mL]
1 | LLIAAFKKLVKK-NH2 [SP5] | > 100 | > 100 | 100 | 20 | > 40 | > 40 | 40 | > 40 | 40 | – | – | – | – | –
2 | CC[C@@H](C)[C@@H](NC(=O)[C@H](Cc1ccccc1)NC(=O)[C@H](CCCNC(=N)N)NC(=O)[C@H](CCCCN)NC(=O)[C@H](CC(C)C)NC(=O)[C@H](Cc1ccccc1)NC(=O)[C@H](CCCCN)NC(=O)[C@H](NC(=O)[C@H](CC(C)C)NC(=O)[C@@H](N)CC(C)C)[C@H](C)CC)C(=O)N[C@@H](CCCCN)C(=O)N[C@@H](Cc1c[nH]cn1)C(N)=O [SP7-D, LL/KFLKRF/KH] (H-LL[dI]KFLKRF[dI]KH-NH2; N-terminus assumed) | – | – | – | – | – | – | – | – | – | 40 | 5 | 2,5 µg/ml | 2,5 µg/ml | 10
3 | LLIRAAKKFIKK-NH2 [SP8] | > 100 | > 100 | 40 | > 40 | > 40 | > 40 | > 40 | > 40 | > 40 | – | – | – | – | –
4 | LLIKFLKRFIKH-NH2 [SP7] | > 100 | > 100 | 20 | 5 | > 40 | 10 | 10 | 5 | 5 | – | – | – | – | –
5 | ALAHFLKKAIKK-NH2 [SP6] | > 100 | > 100 | 100 | > 40 | > 40 | 20 | 5 | 10 | 40 | – | – | – | – | –
